Read-outs that look alike come from different tables or passages of the source.
Key:
Sprague-Dawley rats [1] = conditions: for epididymis histology: high dose rats
Experimental: Ninety-eight male and ninety-eight female Sprague-Dawley (Crl:CD®(SD) IGS BR) Charles River, Hollister, Calif. 95023) rats, approximately 8 to 10 weeks old, were used for the study. The rats were divided into the following groups: non-treated control, vehicle control, 0.005 mg/kg/day, 0.015 mg/kg/day and 0.15 mg/kg/day AGN 194310. AGN 194310 has the following chemical structure: [drawing 18]
The AGN 194310 compound was provided as follows: the compound was dissolved in capric/caprylic triglyceride (CCT) at a variety of doses, either 0.001% (v/v) AGN 194310, 0.003% (v/v) AGN 194310, or 0.01% (v/v) AGN 194310.
One hundred ninety-six animals were distributed into thirteen groups as follows: Groups 1 through 5 were Main Study groups. Groups 6-9 were used for Toxicokinetic studies. Groups 10-13 were Main Study Recovery groups.
(§1) The drug was administered using a graduated syringe and a 20×3 inch animal feeding needle. Drug was given to each animal in a single dose per day.
(§2) Urine was collected from animals in the Main Study and Recovery groups during week 4 of the treatment period, and from Recovery group animals during week 4 of the recovery period. Urine was analyzed for: blood (hemoglobin and erythrocytes), bilirubin, color, glucose, ketones, leukocytes, microscopic evaluations of any urine sediment, […], pH, protein, specific gravity, transparency, and urobilinogen.
(§3) Animals were euthanized by inhalation of carbon dioxide. A complete necropsy was performed on all Main Study and Recovery group animals that died, or were euthanized due to moribund conditions, or were euthanized on scheduled sacrifice.
The following organs were weighed for necroscopized animals: adrenal glands, ovaries, kidneys, pituitary gland, liver, spleen, heart, testes, and brain. In the case of organ pairs, both organs were weighed together.
The following tissues and organs were isolated, trimmed if necessary, and preserved in 10% buffered formalin for histopathological evaluation: adrenal glands, mammary gland (with skin), aorta, ovaries, bone/bone marrow, pancreas, femur, pituitary gland, tibia, prostate gland, knee joint, salivary glands, parotid, brain, sub-maxillary, cervix sciatic nerve, diaphragm, seminal vesicle, epididymides, skeletal muscle (thigh), eyes, spinal chord (thoracic), spleen, esophagus, sternum, stomach, testes, duodenum, thymus, jejunum, thyroid gland with parathyroids, ileum, any tissues with lesion(s), cecum, tongue, colon, trachea, heart, bladder, kidneys, uterus, liver, ureter, lungs, urethra, lymph nodes (vaginal, cervical, mediastinal, mesenteric).
Target tissues and organs from the Vehicle (control) and high-dose groups were imbedded in paraffin, and tissue sections made. The sections were mounted and stained with hematoxylin and eosin using standard histological techniques; such histopathological evaluation was performed using techniques well known in the art.
In the Recovery dosage groups that were so evaluated, the selected tissues were prepared and evaluated as set forth above.

Sprague-Dawley rats [2] = tested on: Sprague-Dawley rats
Experimental: as §1
Animals were weighed on the first day of the study and once per week thereafter, and the body weights recorded. The body weights were used for the dosage calculations. For all the Main Study and Recovery animals, food (Purina Certified Rodent Chow, meal form) was placed into tared glass jars and left in the animal cages. Jars were removed and weighed once weekly. Food was added to the jars when necessary. Food consumption was not recorded for the animals used in the toxicokinetic satellite studies.
as §2, §3

[3] = Excretion of the drug (separate experiment); format: in vivo; conditions: within 2 weeks following treatment
Sprague-Dawley rats [4] = assay: Topical treatment of Sprague-Dawley rats with AGN 194310 cream for 28 days (Example 2); format: in vivo, rat
Experimental: Twenty-nine male and twenty-nine female Sprague-Dawley rats, approximately 7 weeks old were used for the study. Five rats/sex/group were designated as Main Study animals: (vehicle control, 0.025 mg/kg/day AGN 194310, and 0.25 mg/kg/day AGN 194310), and 7/sex/group designated as toxicokinetic satellite animals (0.025 mg/kg/day AGN 194310 and 0.25 mg/kglday AGN 194310). No “vehicle alone” control group was made for the toxicokinetic satellite animals. In this study there was no Recovery group.
The animals' backs were maintained shaven during the course of the study for application of the topical cream. The animals were treated daily with a topical formulation containing either AGN 194310 vehicle cream alone, 0.01% (w/w) AGN 194310 in the same vehicle cream, or 0.1% (w/w) AGN 194310 in the same vehicle cream. The vehicle cream consisted of a mixture of the following ingredients:
Daily dosages were calculated using the most recently obtained body weight, as shown below. The test or control creams were applied for 28 consecutive days to the shaved back of each animal in an area approximately equal to 35.5 cm^2. Application was made using a repeat pipettor, and the drug gently massaged into the skin. An Elizabethan collar was affixed around each animal's neck for a period of about 6 hours following treatment to prevent removal or systemic ingestion of the drug.
Blood was drawn at day 29 via cardiac puncture, as described in Example 1. The animals were first permitted to fast for approximately 16 hours prior to blood collection. Satellite animals were sacrificed on day 28.

male Sprague Dawley rats = assay: Reversibility of spermatogenic arrest, oral AGN 194310 for 4 weeks and recovery (Example 3); format: in vivo, rat
Experimental: Groups of male Sprague Dawley rats were treated orally for 4 weeks with either 0, 0.075, or 0.150 mg/kg/day of AGN 194310. Three to six animals from each group were sacrificed after 2 weeks of treatment, 6 animals from each group were sacrificed following 4 weeks of treatment and 6 animals from each group were sacrificed after 18-23 weeks of subsequent recovery after cessation of treatment. Histological and pathological examinations were done of the sacrificed animals, as in Example 1. Additionally, the animals in the 23 week recovery group were mated to normal, untreated female Sprague Dawley rats before being sacrificed to assess the reproductive function.

[5] = male rats of the Recovery group, approximately one month without drug
[6] = oral 0.075 mg/kg, after 18 weeks of recovery
[7] = oral 0.075 mg/kg, after 23 weeks of recovery

## CCc1ccc(C2=CC(C)(C)Sc3ccc(C#Cc4ccc(C(=O)O)cc4)cc32)cc1 [AGN 194310, 4-[[4-(4-ethylphenyl)-2,2-dimethyl-(2H)-thiochromen-6-yl]-ethynyl]-benzoic acid]
Sprague-Dawley rats [1]; high dose males 0.15 mg/kg/day, usual four or more layers in normal tubules
  germinal cell layers lining the seminiferous tubules: one to two layers of germinal cells
Sprague-Dawley rats [1]; end of recovery
  epididymis histology: absence of stored epididymal sperm
Sprague-Dawley rats [1]; end of treatment
  epididymis histology: increase in exfoliated cells
Sprague-Dawley rats [1]; [5]
  reversibility of inhibition (focal increase in germ cell layers in individual tubules): reversibility of such inhibition was also evident
  spermatogenesis (morphology): continuing cessation of spermatogenesis
  testicular atrophy: testicular atrophy was evident
Sprague-Dawley rats [1]; male rats, oral 0.15 mg/kg/day, Recovery group, end of the recovery period
  spermatozoa counts in urine: no spermatozoa counts
Sprague-Dawley rats [1]; male rats, oral 0.15 mg/kg/day, end of the recovery period
  testes size at postmortem examination: apparent reduction of testes size in all five male rats
Sprague-Dawley rats [1]; male rats, oral high dose 0.15 mg/kg/day, end of the treatment and recovery periods
  testes weight: reduction in testes weight
Sprague-Dawley rats [1]; male rats, oral intermediate dose 0.015 mg/kg/day, end of treatment
  spermatogenic arrest (testes histology): No such effect
Sprague-Dawley rats [1]; male rats, oral low dose 0.005 mg/kg/day, end of treatment
  spermatogenic arrest (testes histology): No such effect
Sprague-Dawley rats [1]; male rats, oral, other dosage groups (0.005 and 0.015 mg/kg/day)
  testes weight: no statistically significant reduction of testes weight
Sprague-Dawley rats [1]; oral high dose 0.15 mg/kg/day, end of treatment
  male rats with spermatogenic arrest (testes histology): 10/10
Sprague-Dawley rats [1]; rat, in vivo
  rats with inflammation or damage to stromal or vascular elements of the testis: None
Sprague-Dawley rats [2]; rat, in vivo, po
  urinalysis parameters: no apparent treatment-related effects
Sprague-Dawley rats [2]; rats, oral, 0.005-0.15 mg/kg/day, course of the study
  treatment-related deaths: No treatment-related deaths
Sprague-Dawley rats [2]; rats, oral, end of the treatment period
  postmortem pathological examination: no noticeable differences
[3]
  drug excreted: 88%
Sprague-Dawley rats [4]; majority of males displaying spermatogenic arrest, topical
  germ cells in the head of the epididymis: notable reduction of germ cells
Sprague-Dawley rats [4]; male rats in all groups, topical
  hematological differences versus control rats: no statistically significant hematological differences
Sprague-Dawley rats [4]; rats, topical skin application, 0.025 and 0.25 mg/kg/day, 28 days
  treatment-related skin irritation: did not result in any evidence of treatment-related skin irritation
Sprague-Dawley rats [4]; rats, topical, 0.025 and 0.25 mg/kg/day, 28 days
  clinical observations, body weight, food consumption, gross pathology: No treatment-related clinical observations, differences in body weight, differences in food consumption, or in gross pathology were observed
Sprague-Dawley rats [4]; topical 0.025 mg/kg/day, 28 days
  male rats with atrophy of the seminiferous tubules with concomitant spermatogenic arrest: 0 out of 5
Sprague-Dawley rats [4]; topical 0.25 mg/kg/day, 28 days
  male rats with atrophy of the seminiferous tubules with concomitant spermatogenic arrest: 5 out of 5
Male Sprague Dawley rats; all the treated animals, oral 0.075 mg/kg
  seminal vesicles: normal
Male Sprague Dawley rats; oral 0.075 mg/kg
  round spermatids in the epididymal caput and cauda: No increase
Male Sprague Dawley rats; oral 0.075 mg/kg, after 2 and 4 weeks of treatment
  rats with evidence of spermatogenic arrest: All rats
Male Sprague Dawley rats; oral 0.075 mg/kg, after 4 weeks of treatment
  weight of the testes and epididymides: significantly reduced
Male Sprague Dawley rats; [6]
  mature sperm in the epididymides: no mature sperm were seen
  spermatogenesis (histological analysis): active spermatogenesis had resumed
  weight of the testes and epididymides: this weight decrease persisted to some degree
Male Sprague Dawley rats; [7]
  fertility (mating to untreated females): All tested animals were fertile
  rats completely recovered (normal testes weights, complete spermatogenesis cycle, mature sperm in epididymides): 2 of the 3
Male Sprague Dawley rats; oral 0.150 mg/kg, after 2 and 4 weeks of treatment
  rats with spermatogenic arrest: all rats
Male Sprague Dawley rats; oral 0.150 mg/kg, after 23 weeks of recovery
  rats completely recovered (active and complete spermatogenesis, normal testes weight): 4 out of 6
Male Sprague Dawley rats; oral 0.150 mg/kg, after 23 weeks of recovery, remaining two animals
  spermatogenesis in the remaining animals: incomplete spermatogenesis no mature sperm seen in the epididymides histologically
Male Sprague Dawley rats; oral 0.150 mg/kg, after 23 weeks of recovery, the 4 recovered rats
  reproduction of the recovered rats: able to reproduce normally
Male Sprague Dawley rats; when administration is halted
  reversibility of the effects of the drug: fully reversible
